Laboratory results reported in US20090264415A2 (priority 2004, published 2009).
Where two headings read alike, the source gives them in different places.

What was measured:
[1] = test system: peripheral blood mononuclear cells (PBMC) stimulated with allogeneic PBMC or EBV-transformed human B cells (RPMI1788); test: Mixed lymphocyte reaction (MLR) assay; type: cell-based; details: 50% suppression of the MLR, [3H]-thymidine incorporation, read-out: MLR
In short: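 Compounds, held as 10 mM DMSO stocks and diluted in culture medium, were added to PBMC stimulated by 30 Gy-irradiated allogeneic PBMC or RPMI1788 cells. Proliferation was read as [3H]-thymidine uptake (1 μCi, final 16 h) after 5 days at 37° C. Inhibition was derived from cpm.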

[2] = test system: phosphodiesterase-4 (PDE-4) extract from U937 cells; test: Phosphodiesterase-4 inhibiting activity (isotopic two-step method); type: biochemical
[3] = test system: production of human TNF-α by PBMC in response to LPS; test: TNF-α assay (LPS-stimulated PBMC, sandwich ELISA); type: cell-based; details: LPS 1 μg/ml, 72 hours, read-out: TNF α
Description: Peripheral blood mononuclear cells (herein referred as PBMC), in response to stimulation by lipopolysaccharide (hereinafter LPS), a gram-negative bacterial endotoxin, produce various […], in particular human TNF-α. Inhibition of the activation of PBMC can therefore be measured by the level of suppression of the production of TNF-α by PBMC in response to stimulation by LPS. Inhibition measurement was performed as follows: PBMC were isolated from heparinized peripheral blood by density gradient centrifugation over Lymphoprep (commercially available from Nycomed, Norway). LPS was then added to the PMBC suspension in complete medium (10^6 cells/ml) at a final concentration of 1 μg/ml. The pteridine derivative to be tested was added at different concentrations (0.1 μM, 1 μM and 10 μM) and the cells were incubated at 37° C. for 72 hours in 5% CO2. The supernatants were collected, then TNF-α concentrations were measured with respectively an anti-TNF-α antibody in a sandwich ELISA (Duo Set ELISA human TNFα, commercially available from R&D Systems, United Kingdom). The colorimetric reading of the ELISA was measured by a Multiskan RC plate reader (commercially available from ThermoLabsystems, Finland) at 450 nm (reference wavelength: 690 nm). Data analysis was performed with Ascent software 2.6. (also from ThermoLabsystems, Finland): a standard curve (recombinant human TNFα) was drawn and the amount (pg/ml) of each sample on the standard curve was determined. The % suppression of human TNFα production by the pyrido[3,2-d]pyrimidine derivatives of the invention was calculated using the formula: [formula]

SMILES | IC50 [1] | IC50 ([1]; Homo sapiens, RPMI-1788) | IC50 ([3]; Homo sapiens, PBMC) | IC50 [3] | also measured
Cc1ccc(-c2ccc3ncnc(N4CCN(C(=O)Nc5cccc(Cl)c5)CC4)c3n2)cc1C [Example 81] | 500 nM | – | – | – | PDE-4 (% inhibition) ([2]; @ 10 μM): 12% @ 10 μM
O=C(Nc1cccc(Cl)c1)N1CCN(c2ncnc3ccc(-c4ccc(Cl)c(Cl)c4)nc23)CC1 [Example 84] | 700 nM | – | – | – | PDE-4 (% inhibition) ([2]; @ 10 μM): 22% @ 10 μM
COc1cc(-c2ccc3ncnc(N4CCN(C(=O)Nc5cccc(Cl)c5)CC4)c3n2)ccc1OC(C)C [Example 121] | 300 nM | – | – | – | PDE-4 (% inhibition) ([2]; @ 10 μM): 54% 10 μM
COc1cc(-c2ccc3ncnc(N4CCN(C(=O)Nc5cccc(Cl)c5)CC4)c3n2)ccc1OCC1CC1 [Example 211, 4-[N-(3-chloro-phenylcarbamoyl)-piperazin-1-yl]-6-(3-methoxy-4-cyclopropylmethoxy-phenyl)-pyrido[3,2-d]pyrimidine] | 400 nM | – | – | – | PDE-4 (% inhibition) ([2]; @ 10 μM): 16% @ 10 μM
COc1ccc(-c2ccc3nc(N)nc(N4CCN(C(=O)c5ccco5)CC4)c3n2)cc1OC [Example 51, 2-amino-4-[1-(2-furoyl)-piperazin-1-yl]-6-(3,4-dimethoxyphenyl)-pyrido[3,2-d]pyrimidine] | 30 nM | – | – | – | PDE-4 (% inhibition) ([2]; @ 0.03 μM): 63% @ 0.03 μM
COc1ccc(-c2ccc3nc(N)nc(N4CCN(C(=O)COc5ccc(Cl)cc5)CC4)c3n2)cc1OC [Example 59, 2-amino-4-[(N-4-chloro-phenoxy-acetyl)-piperazin-1-yl]-6-(3,4-dimethoxyphenyl)-pyrido[3,2-d]pyrimidine] | – | 16 nM | – | – | IC50 ([2]; 1.01 μM [3H]cAMP+cAMP): 34 nM
Nc1nc(N2CCN(C(=O)COc3ccc(Cl)cc3)CC2)c2nc(-c3ccc(F)cc3)ccc2n1 [Example 207, 2-amino-4-[(N-4-chloro-phenoxy-acetyl)-piperazin-1-yl]-6-(4-fluorophenyl)-pyrido[3,2-d]pyrimidine] | 30 nM | – | – | – | PDE-4 (% inhibition) ([2]; @ 10 μM): 34% @ 10 μM
Cc1cc(-c2ccc3nc(N)nc(N4CCOCC4)c3n2)ccc1F [Example 244, 2-amino-4-morpholino-6-(4-fluoro-3-methylphenyl)-pyrido[3,2-d]pyrimidine] | – | 3800 nM | 7200 nM | – | –
CC(=O)N1CCN(c2nc(N)nc3ccc(-c4ccc5c(c4)OCO5)nc23)CC1 [Example 190, 2-amino-4-[N-acetyl-piperazin-1-yl]-6-(3,4-methylenedioxyphenyl)-pyrido[3,2-d]pyrimidine] | – | 800 nM | 4800 nM | – | –
COc1ccc(-c2ccc3ncnc(N4CCN(CCOc5ccccc5)CC4)c3n2)cc1OC [Example 5, 4-[(2-phenoxyethyl)-piperazin-1-yl]-6-(3,4-dimethoxyphenyl)-pyrido[3,2-d]pyrimidine] | 100 nM | – | – | 650 nM | –
COc1ccc(-c2ccc3nc(N)nc(NCCCNC(=O)Nc4cccc(C)c4)c3n2)cc1OC [Example 262, 2-amino-4-[(3-methylphenylcarbamoyl)-3-aminopropane-amino-1-N-yl]-6-(3,4-dimethoxyphenyl)-pyrido[3,2-d]pyrimidine] | – | 500 nM | 6900 nM | – | –
CCOc1ccc(-c2ccc3ncnc(N4CCN(C(=O)Nc5cccc(Cl)c5)CC4)c3n2)cc1Cl [Example 83] | 500 nM | – | – | – | PDE-4 (% inhibition) ([2]; @ 10 μM): 49% @ 10 μM
Cc1ccc(-c2ccc3nc(N)nc(N4CCOCC4)c3n2)s1 [Example 235, 2-amino-4-morpholino-6-(5-methyl-2-thienyl)-pyrido[3,2-d]pyrimidine] | – | 3400 nM | 1800 nM | – | –
COc1ccc(-c2ccc3nc(N)nc(N4CCOCC4)c3n2)cc1Cl [Example 164, 2-amino-4-(morpholino)-6-(3-chloro-4-methoxyphenyl)pyrido[3,2-d]pyrimidine] | – | 600 nM | 1500 nM | – | –
COc1ccc(-c2ccc3ncnc(N4CCNCC4)c3n2)cc1OC [Example 107, 4-(N-piperazin-1-yl)-6-(3,4-dimethoxyphenyl)-pyrido[3,2-d]-pyrimidine] | 3800 nM | – | – | 2700 nM | –
COc1ccc(-c2ccc3ncnc(N4CCN(C(=O)Nc5cccc(Cl)c5)CC4)c3n2)cc1Cl [Example 79, 4-[(N-3-chlorophenylcarbamoyl)-piperazin-1-yl]-6-(3-chloro-4-methoxyphenyl)-pyrido[3,2-d]pyrimidine] | 300 nM | – | – | – | PDE-4 (% inhibition) ([2]; @ 10 μM): 67% @ 10 μM

SMILES | IC50 [1] | IC50 ([1]; Homo sapiens, RPMI-1788) | IC50 ([3]; Homo sapiens, PBMC) | IC50 [3] | also measured
Nc1nc(N2CCOCC2)c2nc(-c3ccccc3Br)ccc2n1 [Example 210, 2-amino-4-morpholino-6-(2-bromo-phenyl)-pyrido[3,2-d]pyrimidine] | – | 1800 nM | 7200 nM | – | –
Cc1noc(C)c1-c1ccc2nc(N)nc(N3CCOCC3)c2n1 [Example 246, 2-amino-4-morpholino-6-[4-(3,5-dimethylisoxazolyl)]-pyrido[3,2-d]pyrimidine] | 5500 nM | – | – | 1600 nM | –
CCOc1ccc(-c2ccc3nc(N)nc(N4CCN(C(=O)Nc5ccc(F)cc5)CC4)c3n2)cc1OC [Example 102] | 40 nM | – | – | 600 nM | –
COc1ccc(-c2ccc3nc(N)nc(NC4CCCN(C(=O)OCc5ccccc5)C4)c3n2)cc1OC (stereo not shown) [Example 258, 2-amino-4-[(1-Cbz-piperidin-3-yl)amino]-6-(3,4-dimethoxyphenyl)-pyrido[3,2-d]pyrimidine] | – | 900 nM | 300 nM | – | –
COc1ccc(-c2ccc3nc(N)nc(N4CCN(C)CC4)c3n2)cc1OC [Example 31, 2-amino-4-(N-methyl-piperazino)-6-(3,4-dimethoxyphenyl)-pyrido[3,2-d]pyrimidine] | – | 900 nM | 800 nM | – | –
COc1ccc(-c2ccc3nc(OC(C)CN4CCCC4)nc(N4CCN(C(=O)Nc5cccc(C)c5)CC4)c3n2)cc1OC (stereo not shown) [Example 17] | 2700 nM | – | – | 5200 nM | –
Nc1nc(N2CCOCC2)c2nc(-c3cccnc3)ccc2n1 [Example 240, 2-amino-4-morpholino-6-(3-pyridinyl)-pyrido[3,2-d]pyrimidine] | – | 1300 nM | 700 nM | – | –
COc1cc(-c2ccc3nc(N)nc(N4CCOCC4)c3n2)ccc1O [Example 96, 2-amino-4-(N-morpholino)-6-(4-hydroxy-3-methoxy)-pyrido[3,2-d]pyrimidine] | 800 nM | – | – | 600 nM | –
COc1ccc(-c2ccc3nc(N)nc(N4CCN(Cc5ccc6c(c5)OCO6)CC4)c3n2)cc1OC [Example 50, 2-amino-4-(1-piperonyl-piperazin-1-yl)-6-(3,4-dimethoxyphenyl)-pyrido[3,2-d]pyrimidine] | 7400 nM | – | – | 8500 nM | –
COc1cc(-c2ccc3nc(N)nc(N4CCNCC4)c3n2)ccc1O [Example 100, 2-amino-4-(N-piperazin-1-yl)-6-(3-methoxy-4-hydroxyphenyl)-pyrido[3,2-d]pyrimidine] | 3300 nM | – | – | 2400 nM | –
O=C(Nc1cccc(Cl)c1)N1CCN(c2ncnc3ccc(-c4ccc5c(c4)OCCO5)nc23)CC1 [Example 80, 4-[(N-3-chlorophenylcarbamoyl)-piperazin-1-yl]-6-(1,4-benzodioxan-6-yl)-pyrido[3,2-d]pyrimidine] | 300 nM | – | – | – | PDE-4 (% inhibition) ([2]; @ 10 μM): 17% @ 10 μM
COc1ccc(-c2ccc3nc(N)nc(N4CCN(C(=O)Nc5cc(Cl)nc(Cl)c5)CC4)c3n2)cc1OC [Example 55, 2-amino-4(N-2,6-dichloro-pyridinyl-carbamoyl-piperazin-1-yl)-6-(3,4-dimethoxyphenyl)-pyrido[3,2-d]pyrimidine] | 300 nM | – | – | 400 nM | –
COc1ccc(-c2ccc3nc(N)nc(NCC(=O)N4CCN(Cc5ccccc5)CC4)c3n2)cc1OC [Example 271, 2-amino-4-[2-(4-benzylpiperazin-1-yl)-2-oxo-ethane-amino]-6-(3,4-dimethoxyphenyl)-pyrido[3,2-d]pyrimidine] | – | 700 nM | 500 nM | – | –
COc1ccc(-c2ccc3ncnc(N4CCN(C(=O)Nc5cccc(Cl)c5)CC4)c3n2)cc1OCC1CC1 [Example 215, 4-[N-(3-chloro-phenylcarbamoyl)-piperazin-1-yl]-6-(3-cyclopropylmethoxy-4-methoxy-phenyl)-pyrido[3,2-d]pyrimidine] | – | 200 nM | 800 nM | – | –
COc1cc(-c2ccc3nc(N)nc(N4CCN(C(=O)Nc5ccc(F)cc5)CC4)c3n2)ccc1O [Example 101, 2-amino-4-[(N-4-fluoro-phenyl-carbamoyl)-piperazin-1-yl]-6-(4-hydroxy-3-methoxy-phenyl)-pyrido[3,2-d]pyrimidine] | 500 nM | – | – | 600 nM | –
Nc1nc(N2CCOCC2)c2nc(-c3ccsc3)ccc2n1 [Example 233, 2-amino-4-morpholino-6-(3-thiophene)-pyrido[3,2-d]pyrimidine] | 4400 nM | – | – | 3700 nM | –
